Type in all cases: biochemical
The target in one experiment is gelatinase. The experiment can be described thus: Gelatinase inhibition assay with fluorogenic Dnp-peptide substrate (method of Stack et al). To be noted: Gel = gelatinase. The source says:
(§1) The capacity of representative compounds of formula I to inhibit collagenase and gelatinase lysis may be determined using the method of M. S. Stack et al, Biol. Chem 264, 4277 (1989). In such assay, a fluorogenic substrate Dnp-Pro-Leu-Gly-Leu-Trp-Ala-D-Arg.(SEQ ID NO:2) where the "Dnp" designation indicates a "dinitrophenyl" group and this group is indicated by "Xaa" in the Sequence Listing. is used. The tryptophan fluorescence is efficiently quenched by the dinitrophenyl group but when it is hydrolyzed by collagenase or gelatinase, there is increased fluorescence with cleavage occurring at the Gly-Leu bond.
(§2) Assays were performed in 0.05M Tris, 5 mM CaCl2, 0.2M NaCl up to 20% Me2 SO, pH 7.7 at either […] or 37° C. using peptide concentrations of 2.5 to 40 μM.
(§3) After addition of enzyme to initiate the reaction, the initial rate of substrate hydrolysis is determined by monitoring the increase in fluorescence emission at 346 nm. using an excitation wavelength of 280 nm. To determine the inhibitory activity the hydrolysis is measured fluorimetrically in the presence of increasing concentrations of the inhibitor and the Ki is determined.

For another experiment, the target named is T1, collagenase (Homo sapiens, UniProt P03956).
T1 sequence (P03956 100-469): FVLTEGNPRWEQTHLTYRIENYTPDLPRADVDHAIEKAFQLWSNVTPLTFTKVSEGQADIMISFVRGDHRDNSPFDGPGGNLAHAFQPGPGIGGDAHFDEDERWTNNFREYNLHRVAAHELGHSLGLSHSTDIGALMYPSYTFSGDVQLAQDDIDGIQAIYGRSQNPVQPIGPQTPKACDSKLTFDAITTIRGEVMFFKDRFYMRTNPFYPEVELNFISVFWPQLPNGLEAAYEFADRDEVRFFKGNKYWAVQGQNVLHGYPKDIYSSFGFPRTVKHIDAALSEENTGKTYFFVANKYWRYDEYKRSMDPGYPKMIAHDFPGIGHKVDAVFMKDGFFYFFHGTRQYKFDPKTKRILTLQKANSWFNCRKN
The experiment can be described thus: Collagenase inhibition assay with fluorogenic Dnp-peptide substrate (method of Stack et al). The settings on record: CGase = collagenase.
Description: as §1, §2, §3

A further experiment has as its target stromelysin (Homo sapiens, UniProt P08254). The experiment can be described thus: Stromelysin inhibition assay (HPLC/fluorometric determination of remaining peptide substrate). To be noted: SLN = stromelysin; substrate 5 μM, enzyme 1.5 nM. Here is the method: Briefly the assay may be carried out by incubating for four hours the inhibitor in dimethyl sulfoxide (DMSO) and 25 μl of 0.3726 μg/ml stromelysin, then adding 60 μl of 11.24 μM substrate and incubating the resulting mixture for 18 hours. The final concentrations of the substrate is 5 μM and of the enzyme 1.5 nM. At this time 50 μl of 0.3 M H3 PO4 is added and a portion of the mixture injected onto an HPLC column and the remaining substrate determined by fluorometric detection. The area of the substrate is quantitated and is plotted as a function of the inhibitor concentration. The Ki is calculated using the following equation: [formula] where area inhibited and ^area control are integrated HPLC areas for substrate for inhibited and uninhibited reactions, respectively; [I] is the inhibitor concentration; [S] is the substrate concentration.

Each structure is given as a SMILES string.

Usually Ki stands for the dissociation constant of the complex between target and ligand, obtained from inhibition or displacement. A lower Ki goes with a stronger hold on the target.

Sequence of stromelysin (P08254 100-477): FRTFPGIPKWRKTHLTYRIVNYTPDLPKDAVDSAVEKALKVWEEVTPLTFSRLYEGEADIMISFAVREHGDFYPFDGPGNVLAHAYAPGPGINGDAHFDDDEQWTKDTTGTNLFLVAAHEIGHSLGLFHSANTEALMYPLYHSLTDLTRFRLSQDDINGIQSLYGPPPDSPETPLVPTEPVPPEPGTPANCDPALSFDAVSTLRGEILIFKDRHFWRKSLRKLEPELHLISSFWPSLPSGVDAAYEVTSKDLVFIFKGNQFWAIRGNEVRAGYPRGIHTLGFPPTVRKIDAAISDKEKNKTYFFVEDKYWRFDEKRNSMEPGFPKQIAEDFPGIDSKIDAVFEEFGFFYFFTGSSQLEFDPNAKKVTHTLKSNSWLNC

For `CC(C)C[C@H](NC(=O)[C@H](CCCCCCCCCN)N[C@H](C)C(=O)O)C(=O)Nc1ccccc1` [Compound 9a], the Ki on gelatinase was 0.5 µM; at collagenase, greater than 10 µM; at stromelysin, 0.24 µM.

As for `CCCCCCCC[C@H](N[C@H](C)C(=O)O)C(=O)N[C@@H](CC(C)C)C(=O)Nc1ccccc1` [Compound 9b], the figures for the Ki at gelatinase, at collagenase and on stromelysin were 0.34 µM, greater than 10 µM and 0.57 µM, respectively.

On to `CCCCCCCC[C@H](N[C@H](C)C(=O)O)C(=O)N[C@@H](CCCNC(=N)N)C(=O)Nc1ccccc1` [Compound 9c], for which the inhibitory constant (Ki) at gelatinase amounted to 0.12 µM; at stromelysin, 1.6 µM.

For `C[C@@H](N[C@@H](CCCCCCCCCN)C(=O)N[C@@H](CCCNC(=N)N)C(=O)Nc1ccccc1)C(=O)O` [Compound 9d], the Ki at gelatinase turned out to be 0.11 µM; at stromelysin it was 0.37 µM.

For the compound `CCCCCCCCCC[C@H](N[C@H](C)C(=O)O)C(=O)N[C@@H](CC(C)C)C(=O)Nc1ccccc1` [Compound 9e], the Ki was 0.56 µM on gelatinase and 0.85 µM at stromelysin.

The values above are taken from patent US6090785A, “Substituted N-carboxyalkylpeptidyl derivatives as antidegenerative agents” (Merck & Co., Inc., priority 1992, dated 2000).
